Columns and labels:
TGF-β = assay: Time course of TGF-β-induced phosphorylation of SMAD2 and ERK in IPF-LL29 cells (reverse-phase protein array); format: cell-based, human; settings: 1 mM OSI-632 as printed, TGF-β 5 ng/ml
Description: (§1) IPF-LL29, IPF-LL97A, and human lung fibroblast LL47 cell lines were purchased from ATCC. Mouse lung fibroblasts were isolated from the lungs of male C57BL/6J mice. Cells were grown at 37° C. under 5% CO2, 95% ambient atmosphere and maintained in Dulbecco's […] (DMEM) supplemented with 10% FBS (Sigma) and 1% Penn Strep.
FIG. 1B. […] At the end of the experiment, cells were lysed in 2% SDS lysis buffer. Protein levels of phosphorylated SMAD2 and ERK were detected in the cell lysates by reverse-phase protein array.

[1] = system: IPF-LL29 and IPF-LL97A cells; assay: qPCR of TGF-β-induced gene expression in IPF-LL29 and IPF-LL97A cells; format: cell-based, human; settings: human lung fibroblast cell lines derived from IPF patients
Description: as §1
(§2) FIGS. 2A and 2B. IPF-29 (FIG. 2A) or IPF-97A (FIG. 2B) cells were incubated with TGF-β alone at 5 ng/ml or TGF-β with indicated drugs for 48 hours and 5 days. Total cellular RNA was isolated using a RNeasy Mini Kit (QIAGEN). 1 μg of total RNA was reverse transcribed into first-strand cDNA using an RT2 First Strand Kit (QIAGEN). The resultant cDNA was subjected to qPCR using indicated human primers to measure the changes in mRNA expression of indicated human genes.

[2] = system: Human lung fibroblasts (LL47); assay: qPCR of TGF-β-induced gene expression in human lung fibroblasts LL47; format: cell-based; settings: OSI-632 1 mM as printed; LL47, 24 hours
Description: as §1
(§3) FIGS. 3A and 3B. Human lung fibroblast LL47 and mouse primary lung fibroblasts isolated from mouse lungs were incubated with TGF-β alone at 5 ng/ml or TGF-β with indicated drugs for 24 hours. Same method as outlined in FIGS. 2A and 2B was used to measure the mRNA expression of indicated human or mouse genes.

mouse lung fibroblasts = assay: qPCR of TGF-β-induced gene expression in mouse primary lung fibroblasts; format: cell-based; settings: TGF-β 5 ng/ml, 24 hours
Description: as §1, §3

LL47 cells = assay: Real-time wound healing assay (Incucyte) in lung fibroblasts; format: cell-based; settings: dose-dependent; human lung fibroblasts
Description: FIG. 5A: LL47 cells were plated on 96-well plates (Essen Image Lock, Essen Instruments). […] Wound closure was monitored with Incucyte Live-Cell Imaging System and software (Essen Instruments) every 2-4 hours for 72 hours. The mean relative wound density of at least three biological replicates was calculated. The wound density correlates with the cell motility.

FGFR = assay: Kinome-profiling, FGFR; format: biochemical; settings: at 500 nM
VEGFR = assay: Kinome-profiling, VEGFR; format: biochemical; settings: at 500 nM
TGFBR1/2 = assay: Kinome-profiling, TGFBR1/2; format: biochemical; settings: at 500 nM
LX2 cells = assay: qPCR of TGF-β-induced gene expression in LX2 cells; format: cell-based, human
Description: LX2 cells were obtained from Sigma Aldrich (Cat #SCC064). LX2 cells were grown at 37° C. under 5% CO2, 95% ambient atmosphere and maintained in Dulbecco's […] (DMEM) supplemented with 10% FBS (Sigma) and 1% Penn Strep.
as §2, with “10B” for “2A”, “10C: LX2” for “2B. IPF-29 (FIG. 2A) or IPF-97A (FIG. 2B)”, “6.5” for “5”, “hours.” for “hours and 5 days.”

SMAD2 phosphorylation = assay: Immunoblot of TGF-β-mediated SMAD2 phosphorylation in LX2 cells; format: cell-based, human
[3] = cited from earlier work

NC(=O)c1c(OCc2c(F)cc(Br)cc2F)nsc1NC(=O)NCCCCN1CCCC1 [OSI-632, 3-(4-bromo-2,6-difluoro-benzyloxy)-5-[3-(4-pyrrolidin-1-yl-butyl)-ureido]-isothiazole-4-carboxylic acid amide]
activity of TGF-β (measured by phosphorylation of SMAD2/3 and Erk) (TGF-β): significantly decreased
TGF-β-induced expression of myofibroblast activation markers αSMA, COL1A1, COL3A1 and FN1 ([1]; 48 hours and 5 days): decreased
expression of myofibroblast proliferation stimuli TGFB1, CTGF, IL-11, FGF2 and VEGFA ([1]; TGF-β 5 ng/ml): significant decrease
TGFb-induced expression of COL1A1, ACTA2, and FN1 and of indicated proliferation stimuli [2]: inhibited
expression of indicated fibroblast activation and proliferation factors (mouse lung fibroblasts): inhibited expression
motility (cell migration), real-time wound healing assay (LL47 cells): potently decreased motility
inhibition of FGFR (FGFR): 90%
inhibition of VEGFR (VEGFR): ~75%
inhibition of TGFBR1/2 (TGFBR1/2): 91%
expression of integrins (ITGAV and ITGB6) and HSC proliferation stimuli TGFB2, PDGFA, PDGFB, CTGF, VEGFA, and CCL5 (LX2 cells): significant decrease
inhibition of expression of COL1A1 (FIG. 10C) (LX2 cells): 2 fold
inhibition of expression of COL1A2 (FIG. 10C) (LX2 cells): 3 fold
inhibition of expression of COL5A1 (FIG. 10C) (LX2 cells): 5 fold
decrease in TGF-β-induced expression of COL1A1 (FIG. 10B) (LX2 cells; 48 hours): 2 fold
decrease in TGF-β-induced expression of αSMA (FIG. 10B) (LX2 cells; 48 hours): 2 fold
activation of TGF-β-mediated SMAD2 phosphorylation (immunoblot) (SMAD2 phosphorylation): blocks activation
bleeding and thrombosis toxicity ([3]; as sometimes observed with agents targeting VEGF/VEGFR): neither had toxicity issues of bleeding and thrombosis
adverse events in the liver ([3]; in vivo): nor does it cause any adverse events in the liver
maximal tolerable dose ([3]; phases I and II trials for various cancers): 200 mg/day
safety and tolerability ([3]; phases I and II trials, toxicities primarily low grade and readily managed): safe and well-tolerated

Reference: patent US20230301972A1, “ANTI-FIBROTIC COMPOSITION AND RELATED METHODS” (Fred Hutchinson Cancer Center, priority 2020, published 2023)
